Assay results from patent US20120014911A1, “Regulators of the Interferon-Alpha Receptor 1 (IFNAR1) Chain of the Interferon Receptor” (priority 2009, published 2012).
Structures can show the parent of a compound that is named as a salt. Where two headings read alike, the source gives them in different places.

Legend:
[1] = tested on: ligand-inducible IFNAR1 degron kinase activity; assay: Phosphorylation-binding assay: GST-IFNAR1 phosphorylated by CK1α-depleted lysates of IFN-α-treated cells, then binding of 35S-labeled β-Trcp2; format: biochemical, human; conditions: inhibitor added in vitro: H89 200 nM, BAY43-9006 50 nM, Bis-I 25 nM, Gö6976 25 nM, LY294002 1.5 μM, SP600125 100 nM, D4476 400 nM, SB203580 100 nM
Description: For some binding assays, the lysates from 293T cells (treated for various tunes with IFN-α, 2000 IU/mL) were depleted of CK1α (as described previously (Liu, et al., 2009, Mal Cell Biol 29(24):6401-12) were incubated with GST-IFNAR1 proteins (wild type or S535,539A mutant that migrates slower on SDS-PAGE due to the presence of four additional amino acids in the linker), ATP and kinase inhibitors (as indicated) for 30 min at 30° C. After that, GST-IFNAR1 were purified and incubated with in vitro translated and 35S-methionine-labeled 3-Trcp2 for 1 h at 4° C.; this binding was later analyzed by autoradiography and Coomassie staining. In vitro serine phosphorylation of GST-IFNAR1 (analyzed by autoradiography or IB with pS535 antibody) by cell extracts or PKD preparations and tyrosine phosphorylation of GST-PKD2 by Tyk2 was carried out and analyzed as described elsewhere herein.
For other binding assays, the lysates from 293T cells (treated for various times with IFN-α, 2000 IU/mL) underwent two rounds of immunodepletion of CK1α as described elsewhere (Liu, et al., 2009, Mol Cell Biol 29(24):6401-12). GST-IFNAR1 proteins (wild type or S535,539A mutant that migrates slower on SDS-PAGE due to the presence of four additional amino acids in the linker (Liu et al., 2009, Cell Host Microbe 5(1):72-83)) were expressed and purified from bacterial cells using glutathione Sepharose. Purified bacterial proteins (2 μg) were incubated in the presence of CK1α-depleted cell lysates (5 μg), unlabeled ATP (0.5 mM) in total volume of 20 μL (containing 25 mM Tris-HCL pH 7.5, 5 mM MgCl2, 100 mM KCl, 1 mM EGTA, 1 mM Na3VO4, 0.1 mM DTT and 3.5% glycerol) for 30 min at 30° C. When indicated, the following kinase inhibitors were added to the reaction in I pi, of DMSO to the final concentration indicated: H89 (200 nM), BAY43-9006 (50 nM), Bis-I (25 nM), Gö6976 (25 nM), LY294002 (1.5 μM), SP600125 (100 nM), D4476 (400 nM), SB203580 (100 nM). The reactions were stopped by placing the tubes on ice and adding 150 μL of ice-cold binding buffer (PBS supplemented with 0.1% NP40 and 50 mM NaF) and incubated with glutathione Sepharose beads (20 μL) for 2 h at 4° C. The beads were then washed three times with 0.5 mL of binding buffer and incubated with 2 μL of in vitro translated and 35S-methionine-labeled13-Trcp2 for 1 h at 4° C. Beads were then washed three times with 1 mL of binding buffer, and the proteins were eluted using Laemmli buffer, resolved by SDS-PAGE, and analyzed by autoradiography and Coomassie staining.

PKD2 [2] = biological target: T1, PKD2 (Homo sapiens, UniProt Q9BZL6); assay: Sangivamycin inhibition of PKD2 (FIGS. 37-38)
T1 sequence (Q9BZL6 1-878): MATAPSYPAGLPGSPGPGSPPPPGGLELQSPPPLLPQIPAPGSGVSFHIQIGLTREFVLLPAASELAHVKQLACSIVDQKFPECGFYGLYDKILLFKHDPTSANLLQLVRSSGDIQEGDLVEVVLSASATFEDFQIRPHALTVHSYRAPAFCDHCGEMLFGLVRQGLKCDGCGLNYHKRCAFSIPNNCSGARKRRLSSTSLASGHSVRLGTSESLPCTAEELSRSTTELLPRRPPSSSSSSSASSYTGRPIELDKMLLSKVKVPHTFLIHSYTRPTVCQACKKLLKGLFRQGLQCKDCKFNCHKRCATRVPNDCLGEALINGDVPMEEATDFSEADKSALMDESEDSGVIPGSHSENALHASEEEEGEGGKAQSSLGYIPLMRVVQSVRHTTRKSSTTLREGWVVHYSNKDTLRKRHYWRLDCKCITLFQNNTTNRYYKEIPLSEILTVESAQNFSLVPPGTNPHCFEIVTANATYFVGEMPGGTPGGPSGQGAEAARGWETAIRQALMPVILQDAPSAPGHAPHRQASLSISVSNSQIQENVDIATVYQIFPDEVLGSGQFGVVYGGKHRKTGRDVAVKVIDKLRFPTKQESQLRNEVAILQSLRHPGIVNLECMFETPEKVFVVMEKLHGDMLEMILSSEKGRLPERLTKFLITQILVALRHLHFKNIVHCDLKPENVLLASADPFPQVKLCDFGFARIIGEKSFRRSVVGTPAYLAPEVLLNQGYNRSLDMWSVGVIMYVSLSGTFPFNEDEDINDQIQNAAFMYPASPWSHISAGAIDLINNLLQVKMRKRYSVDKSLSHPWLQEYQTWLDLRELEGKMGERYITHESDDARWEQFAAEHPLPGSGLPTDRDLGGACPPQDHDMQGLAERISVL

IFN signaling = assay: Sangivamycin effect on IFN signaling (FIGS. 37-38)
[3] = tested on: IFNAR1 Ser535 phosphorylation; format: cell-based, human
IFNAR1 [4] = tested on: IFNAR1
Stat1 = Stat1 tyrosine phosphorylation in response to IFN-α, immunoblot; format: cell-based, human
IFNAR1 [5] = format: cell-based, human
[6] = tested on: IFNAR1 Ser535 phosphorylation; assay: IFN-α-induced Ser535 (degron) phosphorylation of IFNAR1 in cells, IP-immunoblot with anti-pS535; format: cell-based, human
Description: Immunoprecipitation and immunoblotting procedures are described elsewhere (Fuchs et al, 1999, Oncogene 18:2039-2046). Protein degradation was carried out by cycloheximide (CHX, used at 20 μg/ml) chase. IFNAR1 internalization assay was carried out using the Fluorescence-based assay as described elsewhere (Kumar et al., 2007, J Cell Biol 179:935-950). BAY 43-9006 was obtained as a gift. Recombinant human IFN-a2 (Roferon) was purchased from Roche. Other reagents or inhibitors were purchased from commercial vendors.
Antibodies against Flag, GST and j3-actin (Sigma), HA (12CA, Roche), CK1α, PICD1/2 (PKCμ), PKD3 (PKCν), Tyk2, intracellular domain of hIFNAR1 and PKR, (Santa Cruz), anti-pan-phospho-tyrosine (4G10), phospho-Stat1 and Stat1 (Cell signaling), phospho-S710 of PKD2 (Biosource), PKD2 (Bethyl Laboratories), mIFNAR1 (Leinco) and ubiquitin (FK2, Biomol) were purchased. AA3, GB8 and EAl2 antibodies which recognize endogenous IFNAR1 (Goldman et al., 1999) and antibodies against IFNAR1 phosphorylated on Ser535 (pS535; (Kumar et al., 2004, J Biol Chem 279:46614-46620)) were described previously. Secondary antibodies conjugated to horseradish peroxidase were purchased from Chemicon and LI-COR. Immunoprecipitation and immunoblotting procedures are described elsewhere (Fuchs et al, 1999, Oncogene 18:2039-2046). Protein degradation was carried out by cycloheximide (CHX) chase in the presence of CHX (20 μg/ml). Immunoblot detection and quantification were carried out using the LI-COR's Odyssey Infrared Imaging System.

protein kinase D (PKD) = conditions: literature (Gschwendt et al., 1996; Sharlow et al., 2008); cited from earlier work
PKD2 [7] = biological target: T1, PKD2; assay: In vitro phosphorylation of GST-IFNAR1 on Ser535 by purified GST-PKD2; format: biochemical; parameters: made in house; host or cells: 293T cells (human), transient expression, glutathione pull-down; conditions: Gö6976 20-200 nM
Description: In vitro phosphorylation of GST-IFNAR1 by cell extracts or PKD preparations (via immunopurification or GST pulldown) was carried out in kinase buffer (50 mM Tris-HCl pH 7.4, 10 mM MgC12, and 2 mM DTT) with either 0.2 mM of unlabeled ATP or 10 μCi of γ-32P ATP for 20 min at 30° C. The products of this reaction were separated by SDS-PAGE and analyzed either by immunoblotting using anti-pS535 antibody or by autoradiography.

[8] = tested on: IFNAR1 Ser535 phosphorylation; format: cell-based, human; remark: listed apart in the source
[9] = tested on: IFNAR1 Ser532 phosphorylation; format: cell-based, human

In the case of `CNC(=O)c1cc(Oc2ccc(NC(=O)Nc3ccc(Cl)c(C(F)(F)F)c3)cc2)ccn1` [BAY 43-9006], the “recruitment of β-Trcp2 to GST-IFNAR1 (phosphorylation-binding assay)” value (shortened to “recruitment of β-Trcp2 to GST-IFNAR1”) [1] was “not inhibited”.

With `NC(=O)c1cn([C@@H]2O[C@H](CO)[C@@H](O)[C@H]2O)c2ncnc(N)c12` [sangivamycin] the “inhibition of PKD2” value (PKD2 [2]) was “inhibits” and the “efficiency of IFN signaling” value (IFN signaling) was “increases the efficiency of IFN signaling”.

In the case of `NC(=O)c1ccc(-c2nc(-c3ccc4c(c3)OCCO4)c(-c3ccccn3)[nH]2)cc1` [D4476], the “recruitment of β-Trcp2 to GST-IFNAR1” value [1] was “noticeable inhibition”, the “Ser535 phosphorylation of IFNAR1 in response to TG” value [3] was “noticeably attenuated” and the “TG-induced phosphorylation of eIF2α” value [3] was “comparable induction”. For the same compound, the “eIF2a phosphorylation in VSV-infected cells” value [3] was “without affecting”, the “virus-induced S535 phosphorylation of IFNAR1” value [3] was “markedly attenuated” and the “virus-induced downregulation of IFNAR1” value [3] was “markedly attenuated”.

With `OO` [hydrogen peroxide] the “phosphorylation of endogenous IFNAR1 on Ser535 in the absence of IFN-α” value (IFNAR1 [4]; HeLa cells) was “noticeably stimulated”.

For `O=S(=O)(NCCNC/C=C/c1ccc(Br)cc1)c1cccc2cnccc12` [H89], the “recruitment of β-Trcp2 to GST-IFNAR1” value [1] was “noticeable inhibition”.

With `CN(C)CCCn1cc(C2=C(c3c[nH]c4ccccc34)C(=O)NC2=O)c2ccccc21` [Bis I, bisindolylmaleimide I] the “recruitment of β-Trcp2 to GST-IFNAR1” value [1] was “did not affect”.

For VEGF, the “phosphorylation of Flag-IFNAR1 on Ser535” value (IFNAR1 [4]; U3A cells stably expressing Flag-IFNAR1, VEGF 100 ng/ml) was “increased”, the “ubiquitination of IFNAR1” value (IFNAR1 [4]; U3A-Flag-IFNAR1 cells, VEGF treatment) was “stimulated” and the “Stat1 phosphorylation in response to IFN-α” value (Stat1; human umbilical vein endothelial cells, VEGF 100 ng/ml 2 h, IFN-α 15 min) was “noticeably inhibits”.

With `CN` [methylamine HCl] the “thapsigargin-induced decrease of IFNAR1 levels” value (IFNAR1 [5]; 293T cells pre-treated with MA 20 mM 1 h) was “prevented”.

For `C[S+]([O-])c1ccc(-c2nc(-c3ccncc3)c(-c3ccc(F)cc3)[nH]2)cc1` (centres unmarked) [SB203580], the “recruitment of β-Trcp2 to GST-IFNAR1” value [1] was “not inhibited”.

For `Cn1c2ccccc2c2c3c(c4c5ccccc5n(CCC#N)c4c21)CNC3=O` [Gö6976], the “induction of Ser535 phosphorylation of Flag-IFNAR1 by IFN-α” value ([6]; U3A cells stably expressing Flag-IFNAR1, inhibitor pre-treatment) is given as “noticeably decreased”, the “basal Ser535 (degron) phosphorylation of overexpressed IFNAR1” value ([6]; U3A cells stably expressing Flag-IFNAR1, no ligand) is given as “neither the PKD inhibitor Gö6976 nor siRNA against PKD2 decreases” and the “inhibition of / specificity against PKD” value (protein kinase D (PKD)) is given as “shown to inhibit”. For the same compound, the “recruitment of β-Trcp2 to GST-IFNAR1” value [1] was “dramatic inhibition” and the “in vitro phosphorylation of GST-IFNAR1 on Ser535 by GST-PKD2” value (PKD2 [7]) was “decreased the efficacy of IFNAR1 phosphorylation in a dose dependent manner”.

In the case of `C/C=C(/C)C(=O)O[C@H]1C(C)=C2[C@H]([C@@H]1OC(=O)CCCCCCC)[C@@](C)(OC(C)=O)C[C@H](OC(=O)CCC)[C@@]1(O)[C@H]2OC(=O)[C@@]1(C)O` [thapsigargin], the “Ser535 phosphorylation of IFNAR1 in cells with wild type (WT) or catalytically inactive (KR) Tyk2” value ([8]; 2fTGH-derived Tyk2 WT vs KR cells, 30 min) was “comparable levels”, the “phosphorylation of endogenous IFNAR1 on Ser535 in the absence of IFN” value ([8]; 293T cells, TG 1 μM 30 min, DTT 5 mM 30 min) was “stimulated” and the “activation of PERK assessed via phosphorylation of eIF2α” value ([3]; 293T cells, TG 1 μM 30 min) was “caused activation of PERK”. For the same compound, the “half life of IFNAR1” value (IFNAR1 [5]; 293T cells treated with cycloheximide, TG 1 μM) was “decreased”, the “levels of IFNAR1” value (IFNAR1 [5]; human 293T cells, TG 1 μM, within two hours, absence of IFN) was “decreased” and the “ubiquitination of IFNAR1” value (IFNAR1 [5]; human fibrosarcoma cells with WT or KR Tyk2 and 293T cells) was “induced”. The “tyrosine phosphorylation of Stat1 induced by IFN-α” value (Stat1; 293T cells pre-treated with TG 1 μM 4 h, IFNα 50 IU/ml 30 min) was “noticeably decreased”, the “extent of ubiquitination of wild type IFNAR1” value ([9]; Flag-IFNAR1 in 293T cells, TG 1 μM) was “noticeably increased” and the “phosphorylation of endogenous IFNAR1 on Ser532 and Ser535” value ([9]; HeLa cells, TG 1 μM 30 min) was “led to phosphorylation of endogenous IFNAR1 on both Ser532 and Ser535”.

In the case of `NCCNS(=O)(=O)c1ccc(Cl)c2ccncc12` [CKI-7], the “ligand-independent Ser535 phosphorylation of Flag-IFNAR1” value [3] was “decreased”.
